{"source": "patent US9426986B2", "about": "“Hyperbranched polycarbonates for solubilizing poorly soluble active substances” (BASF SE, priority 2009, dated 2016)", "key": {"[1]": {"assay": "Solubilization experiments, general procedure 1 (active ingredient content by UV spectroscopy or HPLC)", "conditions": "pH 7, aqueous buffer, thermodynamic from solid", "method": "Approximately 2 g of polymer were weighed out into a 50 mL glass beaker. Then 0.2 g of each active ingredient was weighed into the batch to give a supersaturated solution. […] The mixture was then stirred at room temperature for 72 hours, using a magnetic stirrer. After a rest time of one hour, unsolubilized active ingredient was removed by filtration. The resulting clear or opaque solution was then analyzed for its active ingredient content by means of UV spectroscopy or HPLC."}, "[2]": {"method": "Approximately 100 mg of polymer were weighed out into a 50 mL glass beaker and dissolved in 9.900 g of distilled water. Then 100 mg of each active ingredient was weighed into the batch to give a supersaturated solution. The mixture was then stirred at room temperature for 24 hours, using a magnetic stirrer. After a rest time of one hour, unsolubilized active ingredient was removed by centrifuging. The resulting clear or opaque solution was then analyzed for its active ingredient content by means of UV spectroscopy.\nThe solubility was determined as described in procedure 2."}}}
{"compound": "CN1C(C(=O)Nc2ccccn2)=C(O)c2ccccc2S1(=O)=O", "note": "[Piroxicam]", "values": [{"measurement": "solubility at 72 h", "setting": "[1]", "value": 420, "unit": "µg/mL"}]}
{"compound": "Clc1ccccc1C(c1ccccc1)(c1ccccc1)n1ccnc1", "note": "[Clotrimazole]", "values": [{"measurement": "solubility at 72 h", "setting": "[1]", "value": "< 100", "unit": "µg/mL"}]}
{"compound": "NC(=O)N1c2ccccc2C=Cc2ccccc21", "note": "[Carbamazepine]", "values": [{"measurement": "solubility at 72 h", "setting": "[1]", "value": 140, "unit": "µg/mL"}]}
{"compound": "polyethylene glycol monomethyl ether [PEG monomethyl ether]", "values": [{"measurement": "Solubility of Fipronil in the presence of polymer", "setting": "[2]", "value": 6, "unit": "µg/mL"}]}
